# Numbers after ± are expanded uncertainties.
# Details: 101.33 kPa, Liquid, Vibrating tube method
smiles,measurement,setting,value
CCOS(=O)(=O)[O-].CCn1cc[n+](C)c1 [1-ethyl-3-methylimidazolium ethyl sulfate],mass density,278.15 K,1250.01 ± 0.13 kg/m3
same,mass density,283.15 K,1246.61 ± 0.13 kg/m3
same,mass density,288.15 K,1243.14 ± 0.13 kg/m3
same,mass density,293.15 K,1239.68 ± 0.13 kg/m3
same,mass density,298.15 K,1236.24 ± 0.13 kg/m3
same,mass density,303.15 K,1232.82 ± 0.13 kg/m3
same,mass density,308.15 K,1229.42 ± 0.13 kg/m3
same,mass density,313.15 K,1226.03 ± 0.13 kg/m3
same,mass density,318.15 K,1222.66 ± 0.12 kg/m3
same,mass density,323.15 K,1219.3 ± 0.1 kg/m3
same,mass density,328.15 K,1215.96 ± 0.12 kg/m3
same,mass density,333.15 K,1212.63 ± 0.12 kg/m3
same,mass density,338.15 K,1209.31 ± 0.12 kg/m3
same,mass density,343.15 K,1206.01 ± 0.12 kg/m3
